Experimental data taken from PubChem BioAssay (NCI).
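In this assay, cells in 96-well plates receive the compound at five concentrations for 48 hours. Endpoints are linearly interpolated between the surrounding concentrations. GI50: concentration for 50% inhibition of growth. TGI marks complete inhibition of growth.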

Experiments:
Test in all cases: growth of human tumour cells (NCI), 48 h
[1] = test system: 786-0 renal
[2] = test system: A498 renal
[3] = test system: A549 NSCLC
[4] = test system: ACHN renal
[5] = test system: BT-549 breast
[6] = test system: CAKI-1 renal
[7] = test system: CCRF-CEM leukemia
[8] = test system: COLO 205 colon
[9] = test system: DU-145 prostate
[10] = test system: EKVX NSCLC
[11] = test system: HCC-2998 colon
[12] = test system: HCT-116 colon
[13] = test system: HCT-15 colon
[14] = test system: HL-60(TB) leukemia
[15] = test system: HOP-62 NSCLC
[16] = test system: HOP-92 NSCLC
[17] = test system: HS 578T breast
[18] = test system: HT29 colon
[19] = test system: IGROV1 ovarian
[20] = test system: K-562 leukemia
[21] = test system: KM12 colon
[22] = test system: LOX IMVI melanoma
[23] = test system: M14 melanoma
[24] = test system: MALME-3M melanoma
[25] = test system: MCF7 breast
[26] = test system: MDA-MB-231 breast
[27] = test system: MDA-MB-435
[28] = test system: MOLT-4 leukemia
[29] = test system: NCI-H226 lung
[30] = test system: NCI-H460 lung
[31] = test system: NCI-H522 lung
[32] = test system: NCI/ADR-RES ovarian
[33] = test system: OVCAR-3 ovarian
[34] = test system: OVCAR-4 ovarian
[35] = test system: OVCAR-5 ovarian
[36] = test system: OVCAR-8 ovarian
[37] = test system: PC-3 prostate
[38] = test system: RPMI-8226 leukemia
[39] = test system: RXF 393 renal
[40] = test system: SF-268 CNS
[41] = test system: SF-295 CNS
[42] = test system: SF-539 CNS
[43] = test system: SK-MEL-2 melanoma
[44] = test system: SK-MEL-28 melanoma
[45] = test system: SK-MEL-5 melanoma
[46] = test system: SK-OV-3 ovarian
[47] = test system: SN12C renal
[48] = test system: SNB-19 CNS
[49] = test system: SNB-75 CNS
[50] = test system: SR leukemia
[51] = test system: SW-620 colon
[52] = test system: T-47D breast
[53] = test system: TK-10 renal
[54] = test system: U251 CNS
[55] = test system: UACC-257 melanoma
[56] = test system: UACC-62 melanoma
[57] = test system: UO-31 renal

Compound `COc1cc(OC)c(S(N)(=O)=O)cc1C(=O)/C=C/c1ccc(C)cc1` has a GI50 [1] of 3.85 µM, a TGI [1] of 22.3 µM and a GI50 [2] of 16.2 µM. It also gave a TGI [2] of 30.7 µM, a GI50 [3] of 2.75 µM and a TGI [3] of 10.3 µM. The GI50 [4] was 3.86 µM, the TGI [4] was 13.9 µM and the GI50 [5] was 2.18 µM. The TGI [5] was 6.79 µM, the GI50 [6] was 2.42 µM and the TGI [6] was 12.4 µM. The GI50 [7] was 3.99 µM, the TGI [7] was over 100 µM and the GI50 [8] was 3.33 µM. For the same compound, the TGI [8] was 9.26 µM, the GI50 [9] was 4.23 µM and the TGI [9] was 18.9 µM. For the same compound, the GI50 [10] was 4.33 µM, the TGI [10] was 16.4 µM and the GI50 [11] was 2.39 µM. For the same compound, the TGI [11] was 5.47 µM, the GI50 [12] was 3.06 µM and the TGI [12] was 12.2 µM. The GI50 [13] was 2.56 µM, the TGI [13] was 12.9 µM and the GI50 [14] was 2.52 µM. For the same compound, the TGI [14] was 15.8 µM, the GI50 [15] was 2.9 µM and the TGI [15] was 7.72 µM. For the same compound, the GI50 [16] was 2.3 µM, the TGI [16] was 7.45 µM and the GI50 [17] was 3.5 µM. For the same compound, the TGI [17] was 35.8 µM, the GI50 [18] was 3.5 µM and the TGI [18] was 10.1 µM. It also gave a GI50 [19] of 3.56 µM, a TGI [19] of 14.4 µM and a GI50 [20] of 2.43 µM. For the same compound, the TGI [20] was over 100 µM, the GI50 [21] was 3.13 µM and the TGI [21] was 14.5 µM. For the same compound, the GI50 [22] was 0.543 µM, the TGI [22] was 5.01 µM and the GI50 [23] was 3.25 µM. It also gave a TGI [23] of 13 µM, a GI50 [24] of 8.55 µM and a TGI [24] of 23.6 µM. It also gave a GI50 [25] of 2.48 µM, a TGI [25] of 12.4 µM and a GI50 [26] of 3.41 µM. For the same compound, the TGI [26] was 12.5 µM, the GI50 [27] was 2.27 µM and the TGI [27] was 6.72 µM. It also gave a GI50 [28] of 3.07 µM, a TGI [28] of 29.6 µM and a GI50 [29] of 4.14 µM. It also gave a TGI [29] of 19.3 µM, a GI50 [30] of 2.24 µM and a TGI [30] of 5.65 µM. For the same compound, the GI50 [31] was 2.48 µM, the TGI [31] was 8.03 µM and the GI50 [32] was 5.25 µM. For the same compound, the TGI [32] was 49.2 µM, the GI50 [33] was 3.05 µM and the TGI [33] was 12.6 µM. It also gave a GI50 [34] of 3.66 µM, a TGI [34] of 16.3 µM and a GI50 [35] of 2.57 µM. The TGI [35] was 7.12 µM, the GI50 [36] was 2.17 µM and the TGI [36] was 5.19 µM. For the same compound, the GI50 [37] was 3.42 µM, the TGI [37] was 14.4 µM and the GI50 [38] was 3.2 µM. It also gave a TGI [38] of 24.7 µM, a GI50 [39] of 2.24 µM and a TGI [39] of 6.06 µM. For the same compound, the GI50 [40] was 3.2 µM, the TGI [40] was 19.8 µM and the GI50 [41] was 3.89 µM. It also gave a TGI [41] of 11.5 µM, a GI50 [42] of 2.17 µM and a TGI [42] of 5.05 µM. For the same compound, the GI50 [43] was 11.5 µM, the TGI [43] was 25.3 µM and the GI50 [44] was 4.09 µM. For the same compound, the TGI [44] was 15.3 µM, the GI50 [45] was 7.81 µM and the TGI [45] was 21.1 µM. For the same compound, the GI50 [46] was 3.18 µM, the TGI [46] was 9.43 µM and the GI50 [47] was 2.95 µM. It also gave a TGI [47] of 11.4 µM, a GI50 [48] of 3.65 µM and a TGI [48] of 15.1 µM. It also gave a GI50 [49] of 1.84 µM, a TGI [49] of 5.09 µM and a GI50 [50] of 2.26 µM. It also gave a TGI [50] of 12.9 µM, a GI50 [51] of 3.43 µM and a TGI [51] of 12.6 µM. It also gave a GI50 [52] of 2.32 µM, a TGI [52] of 7.55 µM and a GI50 [53] of 3.41 µM. The TGI [53] was 12.3 µM, the GI50 [54] was 2.66 µM and the TGI [54] was 10.1 µM. For the same compound, the GI50 [55] was 3.86 µM, the TGI [55] was 15.9 µM and the GI50 [56] was 3.63 µM. It also gave a TGI [56] of 15.2 µM, a GI50 [57] of 3.46 µM and a TGI [57] of 14.5 µM.
